SMILES strings stand for the structures. pIC50: −log10 of the molar value.

In the experiment the target is T1, Human DGAT1 (Homo sapiens, UniProt O75907).
T1 construct: made in house; host or cells: Pichia pastoris (printed 'Pichia pastris'), vector pPICZA; membrane fraction
T1 sequence (O75907 1-488): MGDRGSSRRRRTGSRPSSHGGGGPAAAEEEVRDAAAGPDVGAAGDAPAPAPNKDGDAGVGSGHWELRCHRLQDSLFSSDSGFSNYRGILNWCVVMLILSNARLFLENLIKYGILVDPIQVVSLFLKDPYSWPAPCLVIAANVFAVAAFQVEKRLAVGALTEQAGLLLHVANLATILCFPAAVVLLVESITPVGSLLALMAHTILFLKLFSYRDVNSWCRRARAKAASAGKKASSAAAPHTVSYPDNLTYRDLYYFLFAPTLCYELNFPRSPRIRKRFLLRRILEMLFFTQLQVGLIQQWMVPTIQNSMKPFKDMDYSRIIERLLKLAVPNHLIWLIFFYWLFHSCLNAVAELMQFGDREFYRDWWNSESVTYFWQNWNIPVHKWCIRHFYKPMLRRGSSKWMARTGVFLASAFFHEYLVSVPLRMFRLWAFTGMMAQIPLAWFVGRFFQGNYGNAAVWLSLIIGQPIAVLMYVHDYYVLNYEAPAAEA
Description: DGAT1 Inhibitory Activity Test. In kind it is biochemical. Particulars: DGAT1-expressed yeast membrane fraction, [14C]-oleoyl-CoA, room temperature 30 minutes. Here is the method:
Cloning of Human DGAT1 Gene and Expression in Yeast
Human DGAT1 genes were amplified by PCR using primers described below from human cDNA library (Clontech).
The amplified human DGAT1 genes were introduced into a yeast expression vector pPICZA (Invitrogen). The resultant expression plasmid was introduced into an yeast (Pichia pastris) by electroporation to produce a recombinant yeast. The recombination yeast was cultured in the presence of 0.5% methanol for 72 hours, and the cells were crushed using glass beads in 10 mM Tris pH 7.5, 250 mM sucrose and 1 mM EDTA, followed by adjusting the membrane fraction by centrifugation to use the adjusted membrane fraction as an enzyme source.
To the reaction liquid having the following composition: 100 mM Tris pH 7.5, 100 mM MgCl2, 100 mM sucrose, 40 μM dioelin, 15 μM [^14C]-oleoyl-CoA, 0.25 μg of test substance, DGAT1-expressed yeast membrane fraction, was added, and the mixture having a volume of 100 μl was incubated at room temperature for 30 minutes. To the reaction liquid, 100 μl of 2-propanol/heptan/H2O (80:20:2) was added, the mixture was stirred well, followed by adding 200 μl of heptane and further stirring the mixture. After centrifugation, the heptane layer was collected, ethanol/0.1N NaOH/H2O (50:5:45) was added, the mixture was thus stirred, followed by re-centrifuging the mixture and collecting the heptane layer. After exsiccation of the resultant heptane layer, 100 μl of Microscint 0 (PerkinElmer) was added, and the radioactivity was measured with a liquid scintillation counter. The inhibitory activity was calculated from the following formula:
Inhibition rate=100−(radioactivity in case of addition of test compound−background)/(radioactivity in case of addition of no test compound−background)×100 wherein the background means the radioactivity in case of addition of no membrane fraction.
Consider `CN1C(=O)C(NC(=O)C(C)(C)NC(=O)c2ccccc2)N=C(Cc2ccc(OC(F)(F)F)cc2)c2ccccc21` (single isomer, unassigned) [Example 4 Enantiomer A, N-[1,1-dimethyl-2-({1-methyl-2-oxo-5-[4-(trifluoromethoxy)benzyl]-2,3-dihydro-1H-1,4-benzodiazepin-3-yl}amino)-2-oxoethyl]benzamide], for which the negative-log IC50 (pIC50) (as a rule, the negative decadic logarithm of the IC50, by convention in mol/L) is 6.51.

Consider `CN1C(=O)C(NC(=O)C(C)(C)NC(=O)c2ccccc2)N=C(Cc2ccc(OC(F)(F)F)cc2)c2cc(F)ccc21` (single isomer, unassigned) [Example 2 Enantiomer B, N-[2-({7-fluoro-1-methyl-2-oxo-5-[4-(trifluoromethoxy)benzyl]-2,3-dihydro-1H-1,4-benzodiazepin 3-yl}amino)-1,1-dimethyl-2-oxoethyl]benzamide], for which the pIC50 is 6.79.

With `CN1C(=O)C(NC(=O)C(C)(C)NC(=O)c2ccc(F)cc2)N=C(Cc2ccc(OC(F)(F)F)cc2)c2cc(F)ccc21` (single isomer, unassigned) [Example 1 Enantiomer B, 4-fluoro-N-[2-({7-fluoro-1-methyl-2-oxo-5-[4-(trifluoromethoxy)benzyl]-2,3-dihydro-1H-1,4-benzodiazepin-3-yl}amino)-1,1-dimethyl-2-oxoethyl]benzamide], the negative-log IC50 (pIC50) was 6.88.

In the case of `CN1C(=O)C(NC(=O)C(C)(C)NC(=O)c2ccc(F)cc2)N=C(Cc2ccc(OC(F)(F)F)cc2)c2ccccc21` (single isomer, unassigned) [Example 3 Enantiomer B, N-[1,1-dimethyl-2-({1-methyl-2-oxo-5-[4-(trifluoromethoxy)benzyl]-2,3-dihydro-1H-1,4-benzodiazepin-3-yl}amino)-2-oxoethyl]-4-fluorobenzamide], the negative-log IC50 (pIC50) is 6.90.

In the case of `CN1C(=O)C(NC(=O)C(C)(C)NC(=O)c2ccc(F)cc2)N=C(Cc2ccc(OC(F)(F)F)cc2)c2cc(F)ccc21` (single isomer, unassigned) [Example 1 Enantiomer A, 4-fluoro-N-[2-({7-fluoro-1-methyl-2-oxo-5-[4-(trifluoromethoxy)benzyl]-2,3-dihydro-1H-1,4-benzodiazepin-3-yl}amino)-1,1-dimethyl-2-oxoethyl]benzamide], the pIC50 is 6.32.

In the case of `CN1C(=O)C(NC(=O)C(C)(C)NC(=O)c2ccc(F)cc2)N=C(Cc2ccc(OC(F)(F)F)cc2)c2ccccc21` (single isomer, unassigned) [Example 3 Enantiomer A, N-[1,1-dimethyl-2-({1-methyl-2-oxo-5-[4-(trifluoromethoxy)benzyl]-2,3-dihydro-1H-1,4-benzodiazepin-3-yl}amino)-2-oxoethyl]-4-fluorobenzamide], the pIC50 was 6.74.

For the molecule `CN1C(=O)C(NC(=O)C(C)(C)NC(=O)c2ccccc2)N=C(Cc2ccc(OC(F)(F)F)cc2)c2ccccc21` (single isomer, unassigned) [Example 4 Enantiomer B, N-[1,1-dimethyl-2-({1-methyl-2-oxo-5-[4-(trifluoromethoxy)benzyl]-2,3-dihydro-1H-1,4-benzodiazepin-3-yl}amino)-2-oxoethyl]benzamide], the negative-log IC50 (pIC50) is 6.90.

Regarding `CN1C(=O)C(NC(=O)C(C)(C)NC(=O)c2ccccc2)N=C(Cc2ccc(OC(F)(F)F)cc2)c2cc(F)ccc21` (single isomer, unassigned) [Example 2 Enantiomer A, N-[2-({7-fluoro-1-methyl-2-oxo-5-[4-(trifluoromethoxy)benzyl]-2,3-dihydro-1H-1,4-benzodiazepin 3-yl}amino)-1,1-dimethyl-2-oxoethyl]benzamide], the negative-log IC50 (pIC50) was 6.24.

Source of the values: patent US20120015938A1, “1,4-BENZODIAZEPIN-2-ON DERIVATIVES” (MSD K.K., priority 2009, published 2012).
